Like-named read-outs stand apart in the source and are kept apart here.
Assays:
[1] = target: acetylcholinesterase (AChE) (Homo sapiens, UniProt P22303); test: biochemical
[2] = target: butyrylcholinesterase (BuChE) (Homo sapiens, UniProt P06276); test: biochemical
[3] = Ellman method, pH 7.7, 37 °C, triplicate, ± SEM, read-out: AchE IC50
[4] = Ellman method, pH 7.7, 37 °C, triplicate, ± SEM, read-out: BuChE IC50

Sequence of butyrylcholinesterase (BuChE) (P06276 29-602): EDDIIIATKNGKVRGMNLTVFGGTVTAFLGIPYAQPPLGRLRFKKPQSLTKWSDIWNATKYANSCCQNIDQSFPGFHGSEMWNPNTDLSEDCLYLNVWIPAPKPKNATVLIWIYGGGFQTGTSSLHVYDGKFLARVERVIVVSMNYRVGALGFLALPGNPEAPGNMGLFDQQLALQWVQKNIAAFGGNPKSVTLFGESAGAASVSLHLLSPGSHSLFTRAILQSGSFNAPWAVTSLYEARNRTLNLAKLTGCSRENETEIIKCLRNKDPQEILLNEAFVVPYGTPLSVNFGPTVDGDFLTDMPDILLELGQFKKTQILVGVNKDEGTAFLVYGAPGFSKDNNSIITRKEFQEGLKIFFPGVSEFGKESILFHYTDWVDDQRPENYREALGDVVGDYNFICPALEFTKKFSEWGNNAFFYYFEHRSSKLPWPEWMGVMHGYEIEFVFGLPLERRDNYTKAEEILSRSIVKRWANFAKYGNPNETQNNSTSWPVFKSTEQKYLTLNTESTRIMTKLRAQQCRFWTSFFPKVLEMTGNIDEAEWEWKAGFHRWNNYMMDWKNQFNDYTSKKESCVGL
Sequence of acetylcholinesterase (AChE) (P22303 32-614, species assumed): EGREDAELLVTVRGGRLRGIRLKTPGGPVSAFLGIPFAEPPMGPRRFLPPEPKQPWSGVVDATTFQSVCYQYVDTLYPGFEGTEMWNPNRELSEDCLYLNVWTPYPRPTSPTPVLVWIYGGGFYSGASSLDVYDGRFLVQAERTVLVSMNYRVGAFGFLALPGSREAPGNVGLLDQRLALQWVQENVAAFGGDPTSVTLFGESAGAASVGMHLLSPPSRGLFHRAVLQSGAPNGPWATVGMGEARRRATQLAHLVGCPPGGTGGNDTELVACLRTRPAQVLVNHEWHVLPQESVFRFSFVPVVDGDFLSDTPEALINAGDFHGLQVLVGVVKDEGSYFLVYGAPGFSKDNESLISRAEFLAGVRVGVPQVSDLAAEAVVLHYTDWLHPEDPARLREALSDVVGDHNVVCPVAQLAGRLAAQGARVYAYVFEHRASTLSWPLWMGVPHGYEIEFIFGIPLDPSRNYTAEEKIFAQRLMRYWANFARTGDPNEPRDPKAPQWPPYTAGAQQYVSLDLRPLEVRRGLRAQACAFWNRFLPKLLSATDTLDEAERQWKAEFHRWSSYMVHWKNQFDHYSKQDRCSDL

| SMILES | IC50 [1, 3] [nM] | IC50 [2, 4] [µM] | IC50 [1] [nM] | IC50 [2] [µM] |
| --- | --- | --- | --- | --- |
| O=[N+]([O-])c1cccc(-c2csc(NNS(=O)(=O)c3cc(Cl)cc(Cl)c3O)n2)c1 [analog 1, 3,5-Dichlro-2-hydroxy-N′-(4-(3-nitrophenyl)thiazol-2-yl)benzenesulfonohydrazide] | 100 ± 50 | 0.2 ± 0.05 | – | – |
| O=[N+]([O-])c1cccc(-c2csc(NNS(=O)(=O)c3ccc(Cl)cc3)n2)c1 [analog 2, 4-Chloro-N′-(4-(3-nitrophenyl)thiazol-2-yl)benzenesulfonohydrazide] | 1900 ± 100 | 2.7 ± 0.1 | – | – |
| O=[N+]([O-])c1cccc(-c2csc(NNS(=O)(=O)c3cccc([N+](=O)[O-])c3)n2)c1 [analog 3, 3-Nitro-N′-(4-(3-nitrophenyl)thiazol-2-yl)benzenesulfonohydrazide] | – | – | 2900 ± 100 | 3.8 ± 0.1 |
| Cc1ccc([N+](=O)[O-])cc1S(=O)(=O)NNc1nc(-c2cccc([N+](=O)[O-])c2)cs1 [analog 4, 2-Methyl-5-nitro-N′-(4-(3-nitrophenyl)thiazol-2-yl)benzenesulfonohydrazide] | – | – | 3200 ± 100 | 6.1 ± 0.2 |
| O=[N+]([O-])c1ccc(S(=O)(=O)NNc2nc(-c3ccccc3)cs2)cc1 [analog 6, 4-Nitro-N′-(4-phenylthiazol-2-yl)benzenesulfonohydrazide] | 11400 ± 200 | 14.3 ± 0.3 | – | – |
| O=S(=O)(NNc1nc(-c2ccc(Cl)cc2)cs1)c1ccc(Cl)cc1 [analog 7, 4-Chloro-N′-(4-(4-chlorophenyl)thiazol-2-yl)benzenesulfonohydrazide] | 2600 ± 100 | 4.2 ± 0.1 | – | – |
| O=S(=O)(NNc1nc(-c2ccc(-c3ccccc3)cc2)cs1)c1ccc(Cl)cc1 [analog 8, N′-(4-([1,1′-biphenyl]-4-yl)thiazol-2-yl)-4-chlorobenzenesulfonohydrazide] | 7300 ± 100 | 9.2 ± 0.1 | – | – |
| O=S(=O)(NNc1nc(-c2ccc(Cl)cc2)cs1)c1cc(Cl)cc(Cl)c1O [analog 9, 3,5-Dichloro-N′-(4-(4-chlorophenyl)thiazol-2-yl)-2-hydroxybenzenesulfonohydrazide] | 400 ± 50 | 0.7 ± 0.05 | – | – |
| Cc1ccc([N+](=O)[O-])cc1S(=O)(=O)NNc1nc(-c2ccc(Cl)c(Cl)c2)cs1 [analog 10, N′-(4-(3,4-dichlorophenyl)thiazol-2-yl)-2-methyl-5-nitrobenzenesulfonohydrazide] | 200 ± 50 | 0.6 ± 0.05 | – | – |
| Cc1ccc([N+](=O)[O-])cc1S(=O)(=O)NNc1nc(-c2ccc(Cl)cc2)cs1 [analog 11, N′-(4-(4-chlorophenyl)thiazol-2-yl)-2-methyl-5-nitrobenzenesulfonohydrazide] | 3100 ± 100 | 4.4 ± 0.1 | – | – |
| O=[N+]([O-])c1cccc(S(=O)(=O)NNc2nc(-c3ccc(Cl)c(Cl)c3)cs2)c1 [analog 13, N′-(4-(3,4-dichlorophenyl)thiazol-2-yl)-3-nitrobenzenesulfonohydrazide] | 300 ± 100 | 1.4 ± 0.1 | – | – |
| O=[N+]([O-])c1cccc(S(=O)(=O)NNc2nc(-c3ccc(Cl)cc3)cs2)c1 [analog 14, N′-(4-(4-chlorophenyl)thiazol-2-yl)-3-nitrobenzenesulfonohydrazide] | 1200 ± 100 | 2.7 ± 0.1 | – | – |
| O=S(=O)(NNc1nc(-c2ccc(Cl)c(Cl)c2)cs1)c1ccc(Cl)cc1 [analog 15, 4-Chloro-N′-(4-(3,4-dichlorophenyl)thiazol-2-yl)benzenesulfonohydrazide] | 400 ± 100 | 0.9 ± 0.1 | – | – |
| Cc1ccc([N+](=O)[O-])cc1S(=O)(=O)NNc1nc(-c2ccc(-c3ccccc3)cc2)cs1 [analog 16, N′-(4-([1,1′-biphenyl]-4-yl)thiazol-2-yl)-2-methyl-5-nitrobenzenesulfonohydrazide] | 300 ± 50 | 0.3 ± 0.05 | – | – |
| O=[N+]([O-])c1ccc([N+](=O)[O-])c(S(=O)(=O)NNc2nc(-c3ccc(-c4ccccc4)cc3)cs2)c1 [analog 19, N′-(4-([1,1′-biphenyl]-4-yl)thiazol-2-yl)-2,5-dinitrobenzenesulfonohydrazide] | – | – | 3100 ± 100 | 4.3 ± 0.1 |
| O=[N+]([O-])c1ccc(S(=O)(=O)NNc2nc(-c3cccc([N+](=O)[O-])c3)cs2)cc1 [analog 20, 4-Nitro-N′-(4-(3-nitrophenyl)thiazol-2-yl)benzenesulfonohydrazide] | – | – | 3500 ± 100 | 5.5 ± 0.1 |
| O=[N+]([O-])c1ccc(S(=O)(=O)NNc2nc(-c3ccc(-c4ccccc4)cc3)cs2)cc1 [analog 21, N′-(4-([1,1′-biphenyl]-4-yl)thiazol-2-yl)-4-nitrobenzenesulfonohydrazide] | 3200 ± 100 | 5.4 ± 0.1 | – | – |
